Where a SMILES comes first, the peptide text is derived from it.
Experiments:
[1] = Half-life of peptides incubated in mouse plasma, levels by LC-MS
Description: (§1) FIG. 4. […] (A) Schematic and annotation of the primary amino acid sequence for full-length mouse TAC1 preproprotein and its cleavage products. […] For (B), N=2 per concentration; for (C), N=3 per condition. For (B,C), data are shown as means±SEM. * P<0.05, ** P<0.01 versus control by Student's t-test.
Half-life calculations of CAP-TAC1 in plasma. 10 µM of either synthetic CAP-TAC1 or SP was incubated with 100 μl of mouse plasma. Samples were incubated at 37° C. for 0, 10, 30, 60, or 90 minutes (N=3 for each time point). At the indicated time point, 1 μl of HALT protease inhibitor was immediately added, and plasma was boiled and prepared using the peptidomics workflow described above. […] Half-lives were calculated using an exponential decay fit.

diet induced obese mice [2] = test: Daily CAP-TAC1 treatment of diet induced obese mice with pair fed group; type: in vivo, mouse; settings: 10 mg/kg daily
Description: FIG. 10. […] (A) Body weight change and (B) food intake of diet induced obese mice injected with vehicle (18:1:1 Saline: DMSO: Kolliphor EL), 10 mg/kg CAP-TAC1 (pGlu-FFGLM-NH2), and vehicle pair fed to CAP-TAC1 group. (N=6 for vehicle, N=7 for CAP-TAC1 and pair fed groups, error bars are SEM, and P values calculated with two-way ANOVA.)
CAP-TAC1 treatments in mice. Injected diet induced obese (on high fat diet, 4 months old, male, C57BL/6J, Jackson cat #380050) mice daily with vehicle (18:1:1 Saline: DMSO: Kolliphor EL) or 10 mg/kg CAP-TAC1 (pGlu-FFGLM-NH2). The pair fed group was started one day later and fed the same food the CAP-TAC1 mice ate daily. Mice were singly housed and injected daily ~12 μm. Mouse body weights and food weights were measured at the same time. (N=6 for vehicle, N=7 for CAP-TAC1 and pair fed groups.)

human TACR1 = target: T1, human TACR1 (Homo sapiens, UniProt P25103); test: human TACR1-beta arrestin recruitment assay (PathHunter beta-arrestin CHO-K1 cells); type: cell-based; settings: human TACR1-transfected PathHunter beta-arrestin CHO-K1 cells
T1 construct: host or cells: PathHunter beta-arrestin CHO-K1 cells
Source text: as §1

diet induced obese mice [3] = test: Oxygen consumption after single CAP-TAC1 injection, metabolic chambers; type: in vivo, mouse; settings: single injection at T=0, 10 mg/kg (FIG. 11 legend), over 24 hours
Description: FIG. 11. CAP-TAC1 acutely induces oxygen consumption over 24 hours. Oxygen consumption (VO2) of diet induced obese mice injected with a single injection at T=0 vehicle (18:1:1 Saline: DMSO: Kolliphor EL) or 10 mg/kg CAP-TAC1 (pGlu-FFGLM-NH2). (N=4 for vehicle and CAP-TAC1 groups, error bars are SEM, and P values calculated with two-way ANOVA.)
Metabolic chamber studies. For acute energy expenditure studies, food intake, RER, movement, VO2, and VCO2 were collected with CLAMS Oxymax Metabolic Cages. Mice were placed individual metabolic cages for 24 hours prior to experiment. For CAP-GDF15 experiments, mice were injected with either vehicle, 50 mg/kg CAP-GDF15, or 50 mg/kg scrambled CAP-GDF15 at 5 μm at T=0. For CAP-TAC1 experiments, mice were injected with either vehicle (18:1:1 Saline: DMSO: Kolliphor EL) or […] CAP-TAC1 (pGlu-FFGLM-NH2) at ~12 μm (T=0). Food intake, RER, movement, VO2, and VCO2 were collected every 7 minutes for […] immediately after injection. All experiments were done with 3-5 month old DIO mice (Jackson, stock 380050), fed high fat diet ad libitum.

diet-induced obese mice [4] = test: Three-day daily dosing in diet-induced obese mice, food intake and body weight; type: in vivo, mouse; settings: 50 mg/kg/day, IP, 3 days, versus vehicle control
Description: (§2) FIG. 5. Functional studies of CAP-GDF15 in feeding and energy balance in mice. […] (B) Representative extracted ion chromatogram and (C) mirror tandem fragmentation spectra of CAP-GDF15 (pGlu-[…]-NH2; +2 ion m/z=682.4) and the endogenous plasma peak. (D) Food intake, (E) respiratory exchange ratio (RER), and (F) ambulatory activity of 12-16-week diet-induced obese male mice following a single treatment of CAP-GDF15 (50 mg/kg, intraperitoneal) or vehicle control. (G) Food intake, (H) RER, and (I) ambulatory activity of 12-16-week diet-induced obese male mice following a single treatment of scrambled CAP-GDF15 (50 mg/kg, intraperitoneal, scrambled sequence: pGlu-[…]-NH2) or vehicle control. (J) 3-day food intake and (K) body weight of 12-16-week diet-induced obese male mice following treatment with CAP-GDF15 or scrambled CAP-GDF15 (50 mg/kg/day, IP), or vehicle control. Data are shown as means #SEM. For (D-F), N=12/group; for (G-I), N=8/group; for (J,K), N=7/group. For (D-1), injection occurred at time T=0 (5:00 μm) and data was collected for the following 16 hrs. For (D-K), ** P<0.01, *** P<0.001 by two-way ANOVA.
Lastly, to determine whether the acute hypophagic effects of CAP-GDF15 would lead to long-term suppression of feeding and obesity, we administered CAP-GDF15 or scrambled CAP-GDF15 (50 mg/kg/day, IP), or vehicle control to diet-induced obese mice. Food intake and body weight were monitored over a three-day period. […] Importantly, mice treated with the scrambled CAP-GDF15 peptide were indistinguishable in body weight or food intake from control mice (FIGS. 5J-5K).
Mice and treatments. Animal experiments were performed according to a procedure approved by the Stanford University Administrative Panel on Laboratory Animal Care. Mice were maintained in 12-h light-dark cycles at 22° C. and about 50% relative humidity and fed a standard irradiated rodent diet. Where indicated, a high-fat diet (D12492, Research Diets 60% kcal from fat) was used. Male C57BL/6J (stock number 000664) and male C57BL/6J DIO mice were purchased from the Jackson Laboratory (stock number 380050). For studies in high fat diet-fed mice, peptides were dissolved in 18:1:1 (by volume) of saline: Kolliphor EL (Sigma Aldrich): DMSO and administered to mice by intraperitoneal injections at a volume of 10 μl/g at the indicated doses for the indicated times. For lipopolysaccharide injection, LPS was dissolved in saline and administered to mice at a volume of 5 μl/g at indicated dose. For fasting, food was removed from mice for 16 h. For running, a six-lane Columbus Instruments animal treadmill (product 1055-SRM-D65) was used with following 1 h protocol: 10 min at 6 m/min, 50 min at 18 m/min, and increase every 2 min by 2 m/min for the last 10 minutes, all at 12° incline. […]

diet-induced obese mice [5] = test: Single dose in diet-induced obese mice, metabolic chambers (CAP-GDF15 experiments); type: in vivo, mouse; settings: single dose 50 mg/kg intraperitoneally
Description: as §2
FIG. 6. Additional measurements from metabolic chambers of mice treated with CAP-GDF15. (A) VO2 and (B) VCO2 of 12-16-week diet-induced obese male mice following a single treatment of CAP-GDF15 (50 mg/kg, intraperitoneal) or vehicle control. (C) VO2 and (D) VCO2 of 12-16-week diet-induced obese male mice following a single treatment of scrambled CAP-GDF15 (50 mg/kg, intraperitoneal, scrambled sequence: p[…]-NH2) or vehicle control. Data are shown as means±SEM. For (A-B), N=12/group; for (C-D), N=8/group. For (A-D), injection occurred at time T=0 (5:00 μm) and data was collected for the subsequent 16 hrs.
To test this possibility, we administered a single dose of CAP-GDF15 (50 mg/kg, intraperitoneally) to diet-induced obese mice and measured whole body parameters of energy balance in metabolic chambers.
We next synthesized a control CAP-GDF15 peptide that preserved amino acid composition but scrambled the intervening amino acid sequence (scrambled CAP-GDF15, pGlu-[…]-NH2). […] We conclude that the hypophagic effects of CAP-GDF15 are specific to this amino acid sequence.
Mice and treatments. Animal experiments were performed according to a procedure approved by the Stanford University Administrative Panel on Laboratory Animal Care. Mice were maintained in 12-h light-dark cycles at 22° C. and about 50% relative humidity and fed a standard irradiated rodent diet. Where indicated, a high-fat diet (D12492, Research Diets 60% kcal from fat) was used. Male C57BL/6J (stock number 000664) and male C57BL/6J DIO mice were purchased from the Jackson Laboratory (stock number 380050). For studies in high fat diet-fed mice, peptides were dissolved in 18:1:1 (by volume) of saline: Kolliphor EL (Sigma Aldrich): DMSO and administered to mice by intraperitoneal injections at a volume of 10 μl/g at the indicated doses for the indicated times. For lipopolysaccharide injection, LPS was dissolved in saline and administered to mice at a volume of 5 μl/g at indicated dose. For fasting, food was removed from mice for 16 h. For running, a six-lane Columbus Instruments animal treadmill (product 1055-SRM-D65) was used with following 1 h protocol: 10 min at 6 m/min, 50 min at 18 m/min, and increase every 2 min by 2 m/min for the last 10 minutes, all at 12° incline. For all treatment experiments, mice were mock injected with the vehicle for 3-5 days until body weights were stabilized. Heparin plasm was harvested by submandibular bleed. For all experiments, mice were randomly assigned to treatment groups. Experimenters were not blinded to groups.
Metabolic chamber studies. For acute energy expenditure studies, food intake, RER, movement, VO2, and VCO2 were collected with CLAMS Oxymax Metabolic Cages. Mice were placed individual metabolic cages for 24 hours prior to experiment. […]

GH3 cells = test: Growth hormone secretion from GH3 cells (ELISA of media); type: cell-based, rat; settings: 10 μM
Description: FIG. 13. Functional screen in GH3 cells identifies CAP-WNT9A as a growth hormone secretagogue in vitro. (A) Z-score of media growth hormone concentration with 1 hour treatment of 10 μM of 100% conserved capped peptides growth hormone secretagogue activity in GH3 cells (N=1 for all peptides and N=3 for DMSO). (B) Media growth hormone concentration with 1 hour treatment of 10 μM CAP-WNT9A or DMSO (N=3/group). (Error bars are SEM.)
In a functional screen in GH3 cells, a rat pituitary cell line, various capped peptides are shown to activate growth hormone secretion (FIG. 13A).
In vitro studies. GH3 cells (rat pituitary cell line, ATCC cat. #CCL-82.1) were cultured in F-12K medium with 2.5% fetal bovine serum and 15% horse serum. GH3 cells were washed, resuspended in Krebs Ringer Hepes Buffer, diluted to 0.5 million cells/mL, and aliquoted into tubes (300 μL/sample). The GH3 cells were then starved for 60 minutes in Krebs Ringer Hepes Buffer. The capped peptides (N=1 in screen and N=3 in repeat with CAP-WNT9A) or DMSO (N=3) control were added at a 10 μM final concentration. GH3 cells were incubated for 1 hour. Cells were pelleted with 5 min centrifuge spin at 500×g at 4 C. Grown hormone was measured in the supernatant with an ELISA kit (Thermo Cat #KRC5311) according to product protocol. Z-score of growth hormone concentration is shown. […]

T1 sequence (P25103 whole entry): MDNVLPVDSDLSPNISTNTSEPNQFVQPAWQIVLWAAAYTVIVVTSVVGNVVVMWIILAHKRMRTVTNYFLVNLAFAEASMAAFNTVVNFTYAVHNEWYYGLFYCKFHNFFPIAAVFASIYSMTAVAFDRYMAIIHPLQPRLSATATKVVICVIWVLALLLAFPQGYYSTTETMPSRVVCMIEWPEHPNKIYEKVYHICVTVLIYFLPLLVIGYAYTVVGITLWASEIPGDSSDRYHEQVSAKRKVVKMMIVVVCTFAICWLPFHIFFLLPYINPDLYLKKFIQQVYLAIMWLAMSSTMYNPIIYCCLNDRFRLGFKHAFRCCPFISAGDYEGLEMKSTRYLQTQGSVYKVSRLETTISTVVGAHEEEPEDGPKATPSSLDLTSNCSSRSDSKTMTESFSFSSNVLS

## CSCC[C@H](NC(=O)[C@H](CC(C)C)NC(=O)CNC(=O)[C@H](Cc1ccccc1)NC(=O)[C@H](Cc1ccccc1)NC(=O)[C@@H]1CCC(=O)N1)C(N)=O [CAP-TAC1, pGlu-FFGLM-NH2] (HELM PEPTIDE1{[Glp].F.F.G.L.M.[am]}$$$$V2.0)
[1]
  peptide level in mouse plasma after 90 min: still detectable
[1]; mouse, plasma
  half-life at 10 µM: 14.4 min
Diet induced obese mice [2]; versus vehicle
  food intake: independent of any changes of food intake
Diet induced obese mice [2]; versus vehicle and pair fed group
  body weight change: induces body weight loss
Human TACR1; read-out: ED50, agonism of TACR1
  EC50: 0.7 nM
Human TACR1; read-out: maximal activation, % of maximal response
  Emax: 96.6%
Diet induced obese mice [3]
  oxygen consumption (VO2): induces an increase in oxygen consumption

## pGlu-GLEALRARLRV-NH2 (HELM PEPTIDE1{[Glp].G.L.E.A.L.R.A.R.L.R.V.[am]}$$$$V2.0; SMILES CC(C)C[C@H](NC(=O)CNC(=O)[C@@H]1CCC(=O)N1)C(=O)N[C@@H](CCC(=O)O)C(=O)N[C@@H](C)C(=O)N[C@@H](CC(C)C)C(=O)N[C@@H](CCCNC(=N)N)C(=O)N[C@@H](C)C(=O)N[C@@H](CCCNC(=N)N)C(=O)N[C@@H](CC(C)C)C(=O)N[C@@H](CCCNC(=N)N)C(=O)N[C@H](C(N)=O)C(C)C) [scrambled CAP-GDF15, reference compound]
diet-induced obese mice [4]
  body weight over three-day period: indistinguishable
  food intake over three-day period: indistinguishable
diet-induced obese mice [5]; 16 hrs after injection
  respiratory exchange ratio (RER): completely ineffective
diet-induced obese mice [5]; identical experimental conditions
  food intake, effect in words: completely ineffective

## pGlu-LELRLRVAAGR-NH2 (HELM PEPTIDE1{[Glp].L.E.L.R.L.R.V.A.A.G.R.[am]}$$$$V2.0; SMILES CC(C)C[C@H](NC(=O)[C@@H]1CCC(=O)N1)C(=O)N[C@@H](CCC(=O)O)C(=O)N[C@@H](CC(C)C)C(=O)N[C@@H](CCCNC(=N)N)C(=O)N[C@@H](CC(C)C)C(=O)N[C@@H](CCCNC(=N)N)C(=O)N[C@H](C(=O)N[C@@H](C)C(=O)N[C@@H](C)C(=O)NCC(=O)N[C@@H](CCCNC(=N)N)C(N)=O)C(C)C) [CAP-GDF15, 12-mer capped peptide from amino acids 174-185 of mouse GDF15 prepropeptide region]
diet-induced obese mice [4]
  body weight over three-day period: increasing reduction in body weight
  food intake over three-day period: durable suppression of food intake
diet-induced obese mice [5]
  carbon dioxide production (VCO2): did not alter
  movement (ambulatory activity): did not alter
  oxygen consumption (VO2): did not alter
diet-induced obese mice [5]; 16 hrs after injection
  respiratory exchange ratio (RER): suppression of respiratory exchange ratio (RER) was also observed
  suppression of food intake compared to vehicle-treated mice: ~ 60%

## pGlu-WGGCGDNLKYSSKFVEFL-NH2 (HELM PEPTIDE1{[Glp].W.G.G.C.G.D.N.L.K.Y.S.S.K.F.V.E.F.L.[am]}$$$$V2.0; SMILES CC(C)C[C@H](NC(=O)[C@H](Cc1ccccc1)NC(=O)[C@H](CCC(=O)O)NC(=O)[C@@H](NC(=O)[C@H](Cc1ccccc1)NC(=O)[C@H](CCCCN)NC(=O)[C@H](CO)NC(=O)[C@H](CO)NC(=O)[C@H](Cc1ccc(O)cc1)NC(=O)[C@H](CCCCN)NC(=O)[C@H](CC(C)C)NC(=O)[C@H](CC(N)=O)NC(=O)[C@H](CC(=O)O)NC(=O)CNC(=O)[C@H](CS)NC(=O)CNC(=O)CNC(=O)[C@H](Cc1c[nH]c2ccccc12)NC(=O)[C@@H]1CCC(=O)N1)C(C)C)C(N)=O) [CAP-WNT9A, top hit of growth hormone secretagogue screen]
GH3 cells; 1 hour treatment, N=1
  growth hormone secretagogue activity in screen (Z-score of media growth hormone concentration): highest growth hormone secretagogue activity
GH3 cells; one hour treatment, N=3
  growth hormone concentration in media versus DMSO: increased by four times
